Results taken from patent publication US5753664A, “Heterocyclic compounds, their production and use” (Takeda Chemical Industries, Ltd., priority 1995, dated 1998).
Where a name gives a salt, the structure may show the parent alone. Read-outs that look alike come from different tables or passages of the source.

Assays:
[1] = system: Prostate carcinoma cell line PC-3; test: In vitro prostate carcinoma cell proliferation inhibition assay (MTT); type: cell-based, human; details: read-out: IC50 PC-3
Description: In vitro prostate carcinoma cell proliferation inhibition assay
Prostate carcinoma cell line PC-3 cells were suspended in Ham's F-12K medium (Flow Laboratories or Dainippon Pharmaceutical Co,. Ltd) supplemented with 10% fetal calf serum, and seeded in a 96-well microtiter plate (5000 cells/50 or 75 μl/well). The plate was then incubated in a 5% CO2 incubator at 37° C. On the following day, a 3-fold dilution series with the medium with serum of the test compound in N,N-dimethylformamide (DMF) (50 or 25 μl/well) were added (final volume […]) and the plate was incubated for another 3 days. Following addition of a thiazolyl-tetrazolium (MTT) solution, absorbance based on the viable cell number was determined "Tada et al., Journal of Immunological Methods, 93, 157 (1986)". With the estimated cell number in the control group to which the test compound solution was not added being taken as 100%, the percentage of the estimated cell number in each test group was determined and the concentration (IC50 value) of the test compound which was required for 50% inhibition of the estimated viable cell number in the control group was calculated.

[2] = system: human prostatic carcinoma cells PC-3; test: Inhibitory action against the growth of subcutaneously implanted tumor (Test Example 4, oral dosing); type: in vivo, human; BALB/c nu/nu mouse; details: once a day for 3 weeks; for Tumor volume gain: 52nd day after transplantation, mean ± SD; for T/C: 52nd day, ratio of tumor volume gain treated/control
Description: Inhibitory action of the test compound against the growth of subcutaneously implanted tumor
The human prostatic carcinoma cells PC-3, which are maintained in vitro, were harvested using 0.05% trypsin, washed with Ham's F12K medium containing 10% serum, and then suspended in PBS (phosphate-buffered saline) at a concentration of 3×10^7 cells/ml. The aliquot of 100 μl was transplanted into the right central flank region of a 7-week old, male BALB/c nu/nu mouse using a syringe with a 25 gauge needle. After the size of the resulting tumor mass was measured on the 31st day after the transplanation, the mice were divided into groups of five animals (the average tumor volume of each group was between 273 and 293 mm^3), and then the treatment with test compound was commenced. Tumor volume was calculated according to the formulation: tumor volume=0.5×(the longest diameter)×(the shortest diameter)^2 after two-dimensional measurement of the tumor mass by a caliper. The test compound was suspended in 0.5% methylcellulose/physiological saline, and orally administered at a volume of 10 μl/g body weight. Thereafter the test compound was administered once a day for 3 weeks. The inhibitory action was assessed on the 52nd day after the transplanation, the first day after the last administration, by the ratio of tumor volume gain of treated groups to that of the control group (T/C %). The dosage of the test compound is expressed as mg/kg/shot.

[3] = Homo sapiens, 72 h, PC-3, 3 days incubation, MTT

| Structure (SMILES) | IC50 [1, 3] | also measured |
| --- | --- | --- |
| Cc1cn(C)c2nc(SCc3ccc(C(=O)c4ccc(F)cc4)cc3)n(C)c(=O)c12 [57(A), 2-[4-(4-Fluorobenzoyl)benzyl]thio-3,5,7-trimethyl-7H-pyrrolo[2,3-d]pyrimidin-4(3H)-one] | 5 nM |  |
| Cc1cn(C)c2nc(SC(C)c3ccc(C(=O)c4ccc(F)cc4)cc3)n(C)c(=O)c12 (stereo not drawn) [57(B), 2-[1-[4-(4-Fluorobenzoyl)phenyl]ethyl]thio-3,5,7-trimethyl-7H-pyrrolo[2,3-d]pyrimidin-4(3H)-one] | 9 nM |  |
| CC(C)(C)n1ncc2c(cnn2Cc2ccc(C(=O)c3ccc(Cl)cc3)cc2)c1=O [62(A), 5-Tert-butyl-1-[4-(4-chlorobenzoyl)benzyl]-1H-pyrazolo[3,4-d]pyridazin-4(5H)-one] | < 1.52 nM |  |
| Cc1nn(Cc2ccc(C(=O)c3ccc(Cl)cc3)cc2)c2cnn(C)c(=O)c12 [84(A), 1-[4-(4-Chlorobenzoyl)benzyl]-3,5-dimethyl-1H-pyrazolo [3,4-d]pyridazin-4(5H)-one] | 2 nM |  |
| CCn1c(SC)nc2c(cnn2Cc2ccc(C(=O)c3ccc(Cl)cc3)cc2)c1=O [129(A)] | < 1.52 nM |  |
| CCn1c(SC)nc2c(cnn2Cc2ccc(C(=O)c3ccc(OC)cc3)cc2)c1=O [132(A), 5-Ethyl-1-[4-(4-methoxybenzoyl)benzyl]-6-methylthio-1,5-dihydro-4H-pyrazolo[3,4-d]pyrimidin-4-one] | 2 nM |  |
| Cn1ncc2c(c(Cl)c(Cl)n2Cc2ccc(C(=O)c3ccc(Cl)cc3)cc2)c1=O [Example 37, 1-[4-(4-Chlorobenzoyl)benzyl]-2,3-dichloro-5-methyl-1H-pyrrolo[2,3-d]pyridazin-4(5H)-one] | 6 nM |  |
| Cc1c[nH]c2nc(SCc3ccc(C(=O)c4ccc(Cl)cc4)cc3)[nH]c(=O)c12 [Example 50, 2-[4-(4-Chlorobenzoyl)benzyl]thio-5-methyl-7H-pyrrolo[2,3-d]pyrimidin-4(3H)-one] | 9 nM |  |
| Cc1cn(C)c2nc(SCc3ccc(C(=O)c4ccc(Cl)cc4)cc3)n(C)c(=O)c12 [Example 55, 2-[4-(4-Chlorobenzoyl)benzyl]thio-3,5,7-trimethyl-7H-pyrrolo[2,3-d]pyrimidin-4(3H)-one] | < 1.52 nM |  |
| Cn1ncc2c(c(Cl)c(Cl)n2Cc2ccc(C(=O)c3ccc(F)cc3)cc2)c1=O [Example 66, 1-[4-(4-Fluorobenzoyl)benzyl]-2,3-dichloro-5-methyl-1H-pyrrolo [2,3-d]pyridazin-4(5H)-one] | 8 nM |  |
| Cc1cn(Cc2ccc(C(=O)c3ccc(Cl)cc3)cc2)c2ncn(C)c(=O)c12 [Example 94, 7-[4-(4-Chlorobenzoyl)benzyl]-3,5-dimethyl-7H-pyrrolo [2,3-d]pyrimidin-4(3H)-one] | 2 nM |  |
| CCn1cnc2c(c(C)cn2Cc2ccc(C(=O)c3ccc(Cl)cc3)cc2)c1=O [Example 96, 7-[4-(4-Chlorobenzoyl)benzyl]-3-ethyl-5-methyl-7H-pyrrolo [2,3-d]pyrimidin-4(3H)-one] | < 1.52 nM |  |
| Cc1c(OCc2ccc(C(=O)c3ccc(C(F)(F)F)cc3)cc2)nc2ccccn2c1=O [Example 124, 3-Methyl-2-[4-(4-trifluoromethylbenzoyl)benzyloxy]pyrido[1,2-a]pyrimidin-4-one] | 8 nM |  |
| Cc1cccc2nc(SCc3ccc(C(=O)c4ccc(CSc5nnnn5CCN(C)C)cc4)cc3)n(C)c(=O)c12 [Example 138, 3,5-Dimethyl-2-[4-[4-[[1-(2-dimethylaminoethyl)-1H-tetrazol-5-yl]thiomethyl]benzoyl]benzylthio]-4(3H)-quinazolinone] | < 1.52 nM |  |
| Cc1cccc2nc(SCc3ccc(C(=O)c4ccc(CN5CCN(C)CC5)cc4)cc3)n(C)c(=O)c12 [Example 144, 3,5-Dimethyl-2-[4-[4-(4-methylpiperazinylmethyl)benzoyl]benzylthio]-4(3H)-quinazolinone] | < 1.52 nM |  |
| Cc1csc2nc(SCc3ccc(C(=O)c4ccc(OCCN5CCOCC5)cc4)cc3)n(C)c(=O)c12 [Example 148, 3,5-Dimethyl-2-[4-[4-(2-morpholinoethoxy)benzoyl]-benzylthio]thieno[2,3-d]pyrimidin-4(3H)-one] | < 1.52 nM |  |
| Cn1c(SCc2ccc(C(=O)c3ccc(N4CCC(N5CCCCC5)CC4)nc3)cc2)nc2ccsc2c1=O [Example 158, 3-Methyl-2-[4-[6-(4-piperidinopiperidinyl)nicotinoyl]benzylthio]thieno[3,2-d]pyrimidin-4(3H)-one hydrochloride] | 4.5 nM |  |
| CCc1c(C)nc2n(Cc3ccc(C(=O)c4ccc(Cl)cc4)cc3)ccn2c1=O [Example 169, 1-[4-(4-Chlorobenzoyl)benzyl]-6-ethyl-7-methylimidazo[1,2-a]pyrimidin-5(1H)-one] | < 1.52 nM |  |
| Cc1nc2n(Cc3ccc(C(=O)c4ccc(Cl)cc4)cc3)ccn2c(=O)c1C(C)C [Example 181, 1-[4-(4-Chlorobenzoyl)benzyl]-6-isopropyl-7-methylimidazo[1,2-a]pyrimidin-5(1H)-one] | 3 nM |  |
| Cc1cccc2nc(SCc3ccc(C(=O)c4ccc(C(=O)N5CCN(C)CC5)cc4)cc3)n(C)c(=O)c12 [Example 184, 3,5-Dimethyl-2-[4-[4-(4-methylpiperazinocarbonyl)benzoyl]benzyl]thio-4(3H)-quinazolinone] | < 1.52 nM |  |
| Cc1cccc2nc(SCc3ccc(C(=O)c4ccc(C(=O)N5CCC(N6CCCCC6)CC5)cc4)cc3)n(C)c(=O)c12 [Example 193, 3,5-Dimethyl-2-[4-[4-(4-piperidinopiperidinocarbonyl)benzoyl]benzyl]thio-4(3H)-quinazolinone] | 2 nM |  |
| CCc1cccc2nc(SCc3ccc(C(=O)c4ccc(Cl)cc4)cc3)n(C)c(=O)c12 [Example 214, 2-[4-(4-Chlorobenzoyl)benzyl]thio-5-ethyl-3-methyl-4(3H)-quinazolinone] | 5.2 nM |  |
| CCOP(=O)(OCC)Oc1ccc(C(=O)c2ccc(CSc3nc4cccc(C)c4c(=O)n3C)cc2)cc1 [Example 217, 2-[4-(4-Diethylphosphonooxybenzoyl)benzylthio]-3,5-dimethyl-4(3H)-quinazolinone] |  | IC50 ([1]; PC-3, 3 days incubation, MTT): < 1.52 nM |
| Cc1cccc2nc(SCc3ccc(C(=O)c4ccc(OC(=O)N(C)C)cc4)cc3)n(C)c(=O)c12 [Example 228, 3,5-Dimethyl-2-[4-[4-(N,N-dimethylcarbamoyloxy)-benzoyl]benzylthio]-4(3H)-quinazolinone] |  | IC50 ([1]; Homo sapiens, 72 h): 7 nM |
| Cc1cccc2nc(SCc3ccc(C(=O)c4ccc(OCC(=O)c5ccccc5)cc4)cc3)n(C)c(=O)c12 [Example 234, 3,5-Dimethyl-2-[4-(4-phenacyloxybenzoyl)benzylthio]-4-(3H)-quinazolinone] | 7 nM |  |
| CCn1c(SC)nc2c(ccn2Cc2ccc(C(=O)c3ccc(Cl)cc3)cc2)c1=O [Example 252, 7-[4-(4-Chlorobenzoyl)benzyl]-3-ethyl-2-methylthio-7H-pyrrolo[2,3-d]pyrimidin-4-one] | < 1.52 nM |  |
| O=C(c1ccc(Cn2ccn3c(=O)c4c(nc23)CCCC4)cc1)c1ccc(C(F)(F)F)cc1 [Example 329, 1-[4-(4-Trifluorobenzoyl)benzyl]-6,7,8,9-tetrahydroimidazo[2,1-b]quinazolin-5(1H)-one] | 2.6 nM |  |
| Cc1c(SCc2ccc(C(=O)c3ccc(C(F)(F)F)cc3)cc2)nc2n(c1=O)CCCS2 [Example 365, 3,4-Dihydro-7-methyl-8-(4-(4-trifluoromethylbenzoyl)benzylthio)-2H,6H-pyrimido[2,1-b][1,4]thiazin-6-one] | 6.2 nM |  |
| Cc1c(OCc2ccc(C(=O)c3ccc(C(F)(F)F)cc3)cc2)nc2n(c1=O)CCCC2 [Example 385, 3-Methyl-2-[4-(4-trifluoromethylbenzoyl)benzyloxy]-6,7,8,9-tetrahydro-4H-pyrido[1,2-a]pyrimidin-4-one] | 4.6 nM | Tumor volume gain ([2]; 25 mg/kg p.o.): 893 ± 247 mm^3; T/C ([2]; 25 mg/kg p.o.): 63%; Tumor volume gain ([2]; 50 mg/kg p.o.): 732 ± 156 mm^3; T/C ([2]; 50 mg/kg p.o.): 52%; Tumor volume gain ([2]; 75 mg/kg p.o.): 596 ± 176 mm^3; T/C ([2]; 75 mg/kg p.o.): 42% |
| Cc1ccc(C(=O)c2ccc(COc3nc4n(c(=O)c3C)CCCS4)cc2)cc1 [Example 406, 7-Methyl-8-[4-(4-methylbenzoyl)benzyloxy]-3,4-dihydro-2H,6H-pyrimido[2,1-b][1,3]thiazin-6-one] | 0.94 nM |  |
